Experimental data taken from patent US20190297887A1, “BICYCLIC COMPOUNDS AS PESTICIDES” (Bayer CropScience Aktiengesellschaft, priority 2016, published 2019).
Like-named read-outs stand apart in the source and are kept apart here. One block for each compound: values may come before it.

Tests used:
[1] = tested on: green peach aphids (Myzus persicae); assay: Myzus persicae - oral test; format: in vivo; conditions: 120 h, application rate 4 ppm, after 5 days, oral uptake from microtitre plate, read-out: efficacy in % (aphids killed)
Protocol: Myzus persicae—Oral Test Solvent: 100 parts by weight of acetone To produce a suitable active ingredient formulation, 1 part by weight of active ingredient is dissolved with the stated parts by weight of solvent and made up to the desired concentration with water. 50 μl of the active ingredient formulation are transferred into microtitre plates and made up to a final volume of 200 μl with 150 μl of IPL41 insect medium (33%+15% sugar). Subsequently, the plates are sealed with parafilm, which a mixed population of green peach aphids (Myzus persicae) within a second microtitre plate is able to puncture and imbibe the solution. After 5 days, the efficacy in % is determined. 100% means that all the aphids have been killed; 0% means that no aphids have been killed.

[2] = tested on: green peach aphid (Myzus persicae); assay: Myzus persicae - spray test; format: in vivo; conditions: foliar, application rate 500 g/ha, after 5-6 days, sprayed Chinese cabbage leaf discs, read-out: efficacy in % (aphids killed)
Protocol: Myzus persicae—Spray Test Solvent: 78 parts by weight of acetone • • 1.5 parts by weight of dimethylformamide Emulsifier: alkylaryl polyglycol ether To produce a suitable active ingredient formulation, 1 part by weight of active ingredient is dissolved with the specified parts by weight of solvent and made up to the desired concentration with water containing an emulsifier concentration of 1000 ppm. To produce further test concentrations, the formulation is diluted with emulsifier-containing water. Discs of Chinese cabbage leaves (Brassica pekinensis) infested by all stages of the green peach aphid (Myzus persicae) are sprayed with an active ingredient formulation of the desired concentration. After 5-6 days, the efficacy in % is determined. 100% means that all the aphids have been killed; 0% means that no aphids have been killed.

[3] = tested on: larvae of the mustard beetle (Phaedon cochleariae); assay: Phaedon cochleariae - spray test; format: in vivo; conditions: application rate 500 g/ha; after 7 days; sprayed Chinese cabbage leaf discs
Protocol: Phaedon cochleariae—Spray Test
Solvent: 78.0 parts by weight of acetone • • 1.5 parts by weight of dimethylformamide
Emulsifier: alkylaryl polyglycol ether
To produce a suitable active ingredient formulation, 1 part by weight of active ingredient is dissolved with the specified parts by weight of solvent and made up to the desired concentration with water containing an emulsifier concentration of 1000 ppm. To produce further test concentrations, the formulation is diluted with emulsifier-containing water.
Discs of Chinese cabbage leaves (Brassica pekinensis) are sprayed with an active compound formulation of the desired concentration and, after drying, populated with larvae of the mustard beetle (Phaedon cochleariae).
After 7 days, the efficacy in % is determined. 100% means that all the beetle larvae have been killed; 0% means that no beetle larvae have been killed.

[4] = log P determination by HPLC on reversed-phase columns (OECD Guideline 117); format: physicochemical; conditions: reversed-phase (C18) HPLC column
Protocol: The log P values were determined in accordance with OECD Guideline 117 (EC Directive 92/69/EEC) by HPLC (high-performance liquid chromatography) using reversed-phase (RP) columns (C18), by the following methods: [a] The LC-MS determination in the acidic range is carried out at pH 2.7 with 0.1% aqueous formic acid and acetonitrile (contains 0.1% formic acid) as eluents; linear gradient from 10% acetonitrile to 95% acetonitrile. [b] LC-MS determination in the neutral range is carried out at pH 7.8 with 0.001 molar aqueous ammonium hydrogencarbonate solution and acetonitrile as eluents; linear gradient from 10% acetonitrile to 95% acetonitrile. Calibration is effected using unbranched alkan-2-ones (having 3 to 16 carbon atoms) with known log P values (log P values determined on the basis of the retention times by linear interpolation between two successive alkanones).

[5] = tested on: southern root-knot nematode (Meloidogyne incognita); assay: Meloidogyne incognita test; format: in vivo; conditions: application rate 20 ppm; after 14 days; lettuce in sand; 100% = no galls
Protocol: Meloidogyne incognita Test Solvent: 125.0 parts by weight of acetone To produce a suitable active ingredient formulation, 1 part by weight of active ingredient is mixed with the stated amount of solvent and the concentrate is diluted to the desired concentration with water. Vessels are filled with sand, active ingredient solution, an egg/larvae suspension of the southern root-knot nematode (Meloidogyne incognita) and lettuce seeds. The lettuce seeds germinate and the plants develop. The galls develop on the roots. After 14 days, the nematicidal efficacy in % is determined by the formation of galls. 100% means that no galls were found; 0% means that the number of galls on the treated plants corresponds to the untreated control.

[6] = acidic range, pH 2.7, 0.1% aqueous formic acid/acetonitrile, read-out: log P(HCOOH)
[7] = neutral range, pH 7.8, 0.001 molar aqueous ammonium hydrogencarbonate/acetonitrile, read-out: log P(neutral)

Structure (SMILES): Cn1c(=O)n(CC(F)F)c(=O)n1-c1ccc2nn(-c3cccnc3)cc2c1 [Example 14]
pest or weed control at 4 ppm [1]: 100%
pest or weed control at 500 g/ha [2]: 90%

Structure (SMILES): CC(C)n1c(=O)n(C)n(-c2ccc3nn(-c4cccnc4)cc3c2)c1=O [Example 13]
pest or weed control at 4 ppm [1]: 90%

Structure (SMILES): O=c1cnn(-c2ccc3nn(-c4cccnc4)cc3c2)c(=O)n1CC(F)(F)F [Example 24]
pest or weed control at 4 ppm [1]: 100%

Structure (SMILES): CSCCn1c(=O)n(C)n(-c2ccc3nn(-c4cccnc4)cc3c2)c1=O [Example 6]
pest or weed control at 4 ppm [1]: 90%
pest or weed control at 500 g/ha [2]: 100%

Structure (SMILES): Cn1c(=O)n(C2CC2)c(=O)n1-c1ccc2nn(-c3cccnc3)cc2c1 [Example 3]
pest or weed control at 4 ppm [1]: 100%
pest or weed control at 500 g/ha [2]: 100%

Structure (SMILES): Cn1c(=O)n(-c2ccccc2)c(=O)n1-c1ccc2nn(-c3cccnc3)cc2c1 [Example 4]
pest or weed control at 4 ppm [1]: 100%
efficacy in % (beetle larvae killed) [3]: 83%
pest or weed control at 500 g/ha [2]: 90%

chromatographic logP [4, 6]: 1.38
chromatographic logP [4, 7]: 1.47
Structure (SMILES): Cn1c(=O)cnn(-c2ccc3nn(-c4cccnc4)cc3c2)c1=O [Example 2, 4-Methyl-2-[2-(pyridin-3-yl)-2H-indazol-5-yl]-1,2,4-triazine-3,5(2H,4H)-dione]
pest or weed control at 4 ppm [1]: 100%
pest or weed control at 500 g/ha [2]: 90%

Structure (SMILES): CCn1c(=O)n(C)n(-c2cnc3nn(-c4cccnc4)cc3c2)c1=O [Example 18]
pest or weed control at 4 ppm [1]: 100%
pest or weed control at 500 g/ha [2]: 100%

Structure (SMILES): Cn1c(=O)n(CC(F)(F)F)c(=O)n1-c1ccc2nn(-c3cccnc3)cc2c1 [Example 9]
pest or weed control at 4 ppm [1]: 100%
pest or weed control at 500 g/ha [2]: 90%

Structure (SMILES): O=c1cnn(-c2ccc3nn(-c4cccnc4)cc3c2)c(=O)n1-c1ccccc1 [Example 28]
pest or weed control at 4 ppm [1]: 90%

Structure (SMILES): Cn1c(=O)n(CC2CC2)c(=O)n1-c1cnc2nn(-c3cccnc3)cc2c1 [Example 21]
pest or weed control at 4 ppm [1]: 100%
pest or weed control at 500 g/ha [2]: 100%

chromatographic logP [4, 6]: 1.24
chromatographic logP [4, 7]: 1.31
Structure (SMILES): Cn1c(=O)n(C)n(-c2ccc3nn(-c4cccnc4)cc3c2)c1=O [Example 1, 1,4-Dimethyl-2-[2-(pyridin-3-yl)-2H-indazol-5-yl]-1,2,4-triazolidine-3,5-dione]
pest or weed control at 4 ppm [1]: 100%
nematicidal efficacy in % (formation of galls) [5]: 90%
pest or weed control at 500 g/ha [2]: 90%

Structure (SMILES): CCn1c(=O)cnn(-c2ccc3nn(-c4cccnc4)cc3c2)c1=O [Example 25]
pest or weed control at 4 ppm [1]: 100%
efficacy in % (beetle larvae killed) [3]: 83%
pest or weed control at 500 g/ha [2]: 100%

Structure (SMILES): Cn1c(=O)n(Cc2ccc(Cl)cc2)c(=O)n1-c1ccc2nn(-c3cccnc3)cc2c1 [Example 15]
pest or weed control at 4 ppm [1]: 100%

Structure (SMILES): CC(C)n1c(=O)n(C)n(-c2cnc3nn(-c4cccnc4)cc3c2)c1=O [Example 22]
pest or weed control at 4 ppm [1]: 100%

Structure (SMILES): Cn1c(=O)n(Cc2ccccc2Cl)c(=O)n1-c1ccc2nn(-c3cccnc3)cc2c1 [Example 16]
pest or weed control at 4 ppm [1]: 90%

Structure (SMILES): COCCn1c(=O)n(C)n(-c2ccc3nn(-c4cccnc4)cc3c2)c1=O [Example 12]
pest or weed control at 4 ppm [1]: 100%
pest or weed control at 500 g/ha [2]: 90%

Structure (SMILES): Cn1c(=O)n(C)n(-c2cnc3nn(-c4cccnc4)cc3c2)c1=O [Example 19]
pest or weed control at 4 ppm [1]: 90%
pest or weed control at 500 g/ha [2]: 100%

Structure (SMILES): Cn1c(=O)n(Cc2cccc(Cl)c2)c(=O)n1-c1ccc2nn(-c3cccnc3)cc2c1 [Example 17]
pest or weed control at 4 ppm [1]: 100%

Structure (SMILES): Cn1c(=O)n(Cc2ccccc2)c(=O)n1-c1ccc2nn(-c3cccnc3)cc2c1 [Example 8]
pest or weed control at 4 ppm [1]: 100%
pest or weed control at 500 g/ha [2]: 100%

Structure (SMILES): Cn1c(=O)n(C2CC2)c(=O)n1-c1cnc2nn(-c3cccnc3)cc2c1 [Example 20]
pest or weed control at 4 ppm [1]: 100%
pest or weed control at 500 g/ha [2]: 90%

Structure (SMILES): CCn1c(=O)n(C)n(-c2ccc3nn(-c4cccnc4)cc3c2)c1=O [Example 5]
pest or weed control at 4 ppm [1]: 100%
pest or weed control at 500 g/ha [2]: 90%

Structure (SMILES): Cn1c(=O)n(CC2CC2)c(=O)n1-c1ccc2nn(-c3cccnc3)cc2c1 [Example 7]
pest or weed control at 4 ppm [1]: 100%
pest or weed control at 500 g/ha [2]: 90%

Structure (SMILES): O=c1cnn(-c2ccc3nn(-c4cccnc4)cc3c2)c(=O)n1CC1CC1 [Example 26]
pest or weed control at 4 ppm [1]: 100%
pest or weed control at 500 g/ha [2]: 90%

Structure (SMILES): Cn1c(=O)n(CC(F)(F)F)n(-c2ccc3nn(-c4cccnc4)cc3c2)c1=O [Example 10]
pest or weed control at 4 ppm [1]: 100%

Structure (SMILES): Cn1c(=O)n(CC[S+](C)[O-])c(=O)n1-c1ccc2nn(-c3cccnc3)cc2c1 (stereo not shown) [Example 11]
pest or weed control at 4 ppm [1]: 100%
pest or weed control at 500 g/ha [2]: 90%

Structure (SMILES): O=c1cnn(-c2ccc3nn(-c4cccnc4)cc3c2)c(=O)n1Cc1ccccc1 [Example 27]
pest or weed control at 4 ppm [1]: 100%
pest or weed control at 500 g/ha [2]: 90%

Structure (SMILES): Cn1c(=O)n(Cc2ccc(Cl)nc2)c(=O)n1-c1ccc2nn(-c3cccnc3)cc2c1 [Example 23]
pest or weed control at 4 ppm [1]: 100%
pest or weed control at 500 g/ha [2]: 100%
